Data as given in ChEMBL document CHEMBL3885861, “Open TG-GATES”.

Species: Rattus norvegicus
Experiment: Open TG-GATES - Regimen: Single
Format: toxicity, organism-based, Sprague-Dawley
Design: regimen Single, gender Male, age 6 weeks
Conditions: in vivo, po, 10 mg/kg, route gavage, dose level Low; for APTT / Bas / Eos / Fbg / Hb / Ht / Lym / MCH / MCHC / MCV / Mono / Neu / PT / Plat / RBC / Ret / WBC: tissue Blood; for KIDNEY_L / KIDNEY_R / KIDNEY_TOTAL: tissue Kidney; for LIVER: tissue Liver; for A/G / ALP / ALT / AST / BUN / CRE / Ca / Cl / DBIL / GLC / IP / K / LDH / Na / PL / RALB / TBIL / TC / TG / TP / gamma-GTP: tissue Plasma

`CN(C)CCN(Cc1cccs1)c1ccccn1` showed a TERMINAL_BW (3 h) of 185 g, an APTT (3 h) of 20.7 s and a Bas (3 h) of 0%. It also gave an Eos (3 h) of 0.6%, a Fbg (3 h) of 285 mg/dL and a Hb (3 h) of 13.4 g/dL. It also gave a Ht (3 h) of 40.7%, a Lym (3 h) of 79.6% and an MCH (3 h) of 21.2 pg. For the same compound, the MCHC (3 h) was 32.9%, the MCV (3 h) was 64.6 fL and the Mono (3 h) was 2%. The Neu (3 h) was 17.2%, the PT (3 h) was 16.4 s and the Plat (3 h) was 111.1 x10_4/uL. The RBC (3 h) was 630.4 x10_4/ul, the Ret (3 h) was 7.5% and the WBC (3 h) was 82 x10_2/uL. It also gave a KIDNEY_L (3 h) of 0.8 g, a KIDNEY_R (3 h) of 0.8 g and a KIDNEY_TOTAL (3 h) of 1.6 g. For the same compound, the LIVER (3 h) was 8.1 g, the A/G (3 h) was 1.3 and the ALP (3 h) was 1664.4 IU/L. For the same compound, the ALT (3 h) was 41.2 IU/L, the AST (3 h) was 77.8 IU/L and the BUN (3 h) was 13.6 mg/dL. The CRE (3 h) was 0.2 mg/dL, the Ca (3 h) was 10.5 mg/dL and the Cl (3 h) was 107.6 meq/L. The DBIL (3 h) was 0.002 mg/dL, the GLC (3 h) was 171.6 mg/dL and the IP (3 h) was 8 mg/dL. It also gave a K (3 h) of 4.2 meq/L, an LDH (3 h) of 205.8 IU/L and a Na (3 h) of 144 meq/L. For the same compound, the PL (3 h) was 125.4 mg/dL, the RALB (3 h) was 3 g/dL and the TBIL (3 h) was 0.014 mg/dL. For the same compound, the TC (3 h) was 67.8 mg/dL, the TG (3 h) was 43.2 mg/dL and the TP (3 h) was 5.3 g/dL. It also gave a gamma-GTP (3 h) of 1.2 IU/L, a TERMINAL_BW (6 h) of 188.4 g and an APTT (6 h) of 20.6 s. It also gave a Bas (6 h) of 0%, an Eos (6 h) of 0.6% and a Fbg (6 h) of 294.6 mg/dL. For the same compound, the Hb (6 h) was 12.7 g/dL, the Ht (6 h) was 39% and the Lym (6 h) was 77.8%. The MCH (6 h) was 21.3 pg, the MCHC (6 h) was 32.6% and the MCV (6 h) was 65.3 fL. The Mono (6 h) was 2.2%, the Neu (6 h) was 18.6% and the PT (6 h) was 17.1 s. For the same compound, the Plat (6 h) was 119.7 x10_4/uL, the RBC (6 h) was 597.6 x10_4/ul and the Ret (6 h) was 7.6%. For the same compound, the WBC (6 h) was 70.2 x10_2/uL, the KIDNEY_L (6 h) was 0.9 g and the KIDNEY_R (6 h) was 0.9 g. The KIDNEY_TOTAL (6 h) was 1.9 g, the LIVER (6 h) was 8.2 g and the A/G (6 h) was 1.3. The ALP (6 h) was 1485.8 IU/L, the ALT (6 h) was 37.6 IU/L and the AST (6 h) was 70.2 IU/L. It also gave a BUN (6 h) of 10.8 mg/dL, a CRE (6 h) of 0.1 mg/dL and a Ca (6 h) of 10.3 mg/dL. For the same compound, the Cl (6 h) was 106.6 meq/L, the DBIL (6 h) was 0.002 mg/dL and the GLC (6 h) was 171.6 mg/dL. It also gave an IP (6 h) of 9.6 mg/dL, a K (6 h) of 4.4 meq/L and an LDH (6 h) of 202.4 IU/L. The Na (6 h) was 141.6 meq/L, the PL (6 h) was 124 mg/dL and the RALB (6 h) was 2.9 g/dL. It also gave a TBIL (6 h) of 0.016 mg/dL, a TC (6 h) of 70.6 mg/dL and a TG (6 h) of 63.6 mg/dL. It also gave a TP (6 h) of 5.3 g/dL, a gamma-GTP (6 h) of 1 IU/L and a TERMINAL_BW (9 h) of 182.3 g. The APTT (9 h) was 20.7 s, the Bas (9 h) was 0% and the Eos (9 h) was 0.4%. For the same compound, the Fbg (9 h) was 314.8 mg/dL, the Hb (9 h) was 12.9 g/dL and the Ht (9 h) was 38.8%. It also gave a Lym (9 h) of 77.4%, an MCH (9 h) of 20.8 pg and an MCHC (9 h) of 33.3%. It also gave an MCV (9 h) of 62.5 fL, a Mono (9 h) of 2.2% and a Neu (9 h) of 19.4%. For the same compound, the PT (9 h) was 15.9 s, the Plat (9 h) was 114.9 x10_4/uL and the RBC (9 h) was 621.8 x10_4/ul. For the same compound, the Ret (9 h) was 7.4%, the WBC (9 h) was 62 x10_2/uL and the KIDNEY_L (9 h) was 0.8 g. For the same compound, the KIDNEY_R (9 h) was 0.9 g, the KIDNEY_TOTAL (9 h) was 1.7 g and the LIVER (9 h) was 7.8 g. It also gave an A/G (9 h) of 1.2, an ALP (9 h) of 1429.4 IU/L and an ALT (9 h) of 30.2 IU/L. It also gave an AST (9 h) of 62.8 IU/L, a BUN (9 h) of 11.2 mg/dL and a CRE (9 h) of 0.1 mg/dL. The Ca (9 h) was 10.4 mg/dL, the Cl (9 h) was 106.4 meq/L and the DBIL (9 h) was 0 mg/dL. It also gave a GLC (9 h) of 171 mg/dL, an IP (9 h) of 9.6 mg/dL and a K (9 h) of 4.2 meq/L. The LDH (9 h) was 171 IU/L, the Na (9 h) was 142.4 meq/L and the PL (9 h) was 129 mg/dL. For the same compound, the RALB (9 h) was 3 g/dL, the TBIL (9 h) was 0.018 mg/dL and the TC (9 h) was 67.2 mg/dL. For the same compound, the TG (9 h) was 69.2 mg/dL, the TP (9 h) was 5.4 g/dL and the gamma-GTP (9 h) was 1 IU/L. For the same compound, the TERMINAL_BW (24 h) was 197.6 g, the APTT (24 h) was 19.8 s and the Bas (24 h) was 0%. For the same compound, the Eos (24 h) was 0.5%, the Fbg (24 h) was 282.8 mg/dL and the Hb (24 h) was 12.7 g/dL. The Ht (24 h) was 38.4%, the Lym (24 h) was 80.5% and the MCH (24 h) was 21.8 pg. The MCHC (24 h) was 33.1%, the MCV (24 h) was 65.8 fL and the Mono (24 h) was 1.8%. It also gave a Neu (24 h) of 16.8%, a PT (24 h) of 16.6 s and a Plat (24 h) of 114.6 x10_4/uL. It also gave an RBC (24 h) of 584 x10_4/ul, a Ret (24 h) of 7.2% and a WBC (24 h) of 94 x10_2/uL. It also gave a KIDNEY_L (24 h) of 0.9 g, a KIDNEY_R (24 h) of 0.9 g and a KIDNEY_TOTAL (24 h) of 1.7 g. For the same compound, the LIVER (24 h) was 9.3 g, the A/G (24 h) was 1.2 and the ALP (24 h) was 1858.2 IU/L. For the same compound, the ALT (24 h) was 42.2 IU/L, the AST (24 h) was 69.6 IU/L and the BUN (24 h) was 16.4 mg/dL. It also gave a CRE (24 h) of 0.2 mg/dL, a Ca (24 h) of 10.7 mg/dL and a Cl (24 h) of 107.4 meq/L. For the same compound, the DBIL (24 h) was 0.002 mg/dL, the GLC (24 h) was 180.6 mg/dL and the IP (24 h) was 7.3 mg/dL. For the same compound, the K (24 h) was 4.3 meq/L, the LDH (24 h) was 223.2 IU/L and the Na (24 h) was 142.8 meq/L. The PL (24 h) was 145.4 mg/dL, the RALB (24 h) was 2.9 g/dL and the TBIL (24 h) was 0.008 mg/dL. It also gave a TC (24 h) of 75.2 mg/dL, a TG (24 h) of 131.8 mg/dL and a TP (24 h) of 5.3 g/dL. The gamma-GTP (24 h) was 1 IU/L.
